# Several values for one entry are separate records, joined by “and”; a condition that tells them apart may be missing. Identical values can stand only once.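 In this assay, cells in 96-well plates receive the compound at five concentrations for 48 hours. Endpoints are linearly interpolated between the surrounding concentrations. Abbreviation: GI50, concentration required for 50% inhibition of growth. Definition used: TGI = concentration required for complete inhibition of growth.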
# How the values were obtained:
# Assay in all cases: NCI-60 cell line screen, 48 h
# [1] = test system: HCT-15 colon
# [2] = test system: HCT-116 colon
# [3] = test system: OVCAR-3 ovarian
# [4] = test system: OVCAR-4 ovarian
# [5] = test system: TK-10 renal
# [6] = test system: MALME-3M melanoma
# [7] = test system: RXF 393 renal
# [8] = test system: A549 NSCLC
# [9] = test system: SNB-75 CNS
# [10] = test system: NCI/ADR-RES ovarian
Structure (SMILES),TGI [1],TGI [2],TGI [3],TGI [4],TGI [5],TGI [6],TGI [7],TGI [8],TGI [9],GI50 [1],GI50 [2],GI50 [3],GI50 [4],GI50 [5],GI50 [10],TGI [10],GI50 [8],GI50 [9],GI50 [6],GI50 [7]
O=C(/C=C/c1ccccc1O)c1cccc2ccccc12,> 58.4 µM,> 69.7 µM,> 100 µM,> 100 µM,> 100 µM,> 100 µM,> 88.9 µM,> 100 µM,> 100 µM,–,–,–,–,–,–,–,–,–,–,–
Nc1c(C(=O)NC23CC4CC(CC(C4)C2)C3)[n+]([O-])c2ccccc2[n+]1[O-],> 100 µM,–,> 100 µM,> 100 µM,> 100 µM,> 100 µM,–,> 100 µM,> 100 µM,–,–,–,–,–,–,–,–,–,–,–
CC(C)C[CH2][Ge]([CH2]CC(C)C)([CH2]CC(C)C)[CH2]CC(C)C,> 100 µM,> 100 µM,> 100 µM,> 100 µM,> 100 µM,–,–,> 100 µM,> 100 µM,> 100 µM,> 100 µM,> 100 µM,> 100 µM,> 100 µM,> 100 µM,> 100 µM,> 100 µM,> 100 µM,–,–
N#Cc1cc([N+](=O)[O-])ccc1NC(=O)C(=O)C(C(=O)c1ccc2ccccc2c1)C1OCc2ccccc21 (stereo not given),37.7 µM,16.2 µM,> 47.6 µM,> 55.2 µM,45.8 µM,26.8 µM,12.4 µM,> 89 µM,16.1 µM,–,–,–,–,–,–,–,–,–,–,–
O=S1c2ccccc2NC(c2ccc3ccccc3c2)CC1c1ccccc1 (stereo not given),54 µM,–,35.1 µM,53.9 µM,> 100 µM,> 100 µM,30.5 µM,> 100 µM,86.6 µM,–,–,–,–,–,–,–,–,–,–,–
Cc1cn([C@H]2C[C@H](O)[C@@H](CO)O2)c(=O)nc1N,> 100 µM,> 100 µM,> 100 µM,> 100 µM,> 100 µM,> 100 µM,–,> 100 µM,> 100 µM,–,–,–,–,–,–,> 100 µM,–,–,–,–
CCCC(=O)c1ccc(=O)n(C)c1,> 100 µM,> 100 µM,> 100 µM,> 100 µM,> 100 µM,> 100 µM,> 100 µM,> 100 µM,> 100 µM,–,–,–,–,–,–,–,–,–,–,–
c1ccc2cc(C[n+]3ccn(Cc4ccc5ccccc5n4)c3)ccc2c1,27.7 µM and > 100 µM,6.86 µM and 15.8 µM,1.98 µM and 13.2 µM,4.8 µM and 15.2 µM,6.47 µM and 23.8 µM,0.811 µM and 6.35 µM,3.23 µM and 19.7 µM,14.1 µM and 24.2 µM,–,12.3 µM and 53.5 µM,0.413 µM and 3.29 µM,0.316 µM and 2.15 µM,0.26 µM and 1.43 µM,1.71 µM and 10.4 µM,> 100 µM,> 100 µM,–,–,0.235 µM and 1.36 µM,–
O=C(Nc1ccc(Nc2ccncc2)cc1)c1ccc(Nc2ccnc3ccc([N+](=O)[O-])cc23)cc1[N+](=O)[O-],> 100 µM,> 100 µM,> 89.5 µM,> 79.1 µM,> 80.2 µM,–,42.5 µM,> 44.2 µM,50.6 µM,35.6 µM,23.7 µM,24.7 µM,6.01 µM,27.9 µM,12.8 µM,> 100 µM,3.95 µM,16 µM,–,24.9 µM
COc1cnc2c(c1)C(=O)c1c-2n(CCCNCCN2CCOCC2)c(=O)c2cc([N+](=O)[O-])ccc12,2.58 µM,–,1.71 µM,3.44 µM,3.17 µM,2.86 µM,1.93 µM,–,10.7 µM,0.297 µM,–,0.315 µM,0.334 µM,0.73 µM,0.125 µM,1.45 µM,–,0.265 µM,0.34 µM,0.387 µM
O=C(Oc1ccc2c(-c3ccccc3)c(C(=O)Nc3ccc(Cl)cc3)c(=O)oc2c1)c1ccccc1,> 100 µM,> 100 µM,> 100 µM,–,> 100 µM,> 100 µM,> 100 µM,> 100 µM,> 100 µM,–,–,–,–,–,–,–,–,–,–,–
O=C(Cc1csc2nc(-c3ccc(Br)cc3)cn12)N/N=C/c1ccc(Cl)cc1Cl,73.2 µM,36.8 µM,> 100 µM,> 100 µM,–,–,85.1 µM,37.5 µM,> 100 µM,25.5 µM,17.1 µM,34.9 µM,37.3 µM,–,17.2 µM,52.3 µM,16.8 µM,37.5 µM,–,28.4 µM
O=C(O)c1cn(C2CC2)c2cc(N3CCNCC3)c(F)cc2c1=O,> 100 µM,> 100 µM,> 100 µM,> 100 µM,> 100 µM,> 100 µM,> 100 µM,> 100 µM,–,> 100 µM,> 100 µM,> 100 µM,> 100 µM,> 100 µM,> 100 µM,> 100 µM,> 100 µM,–,74.6 µM,> 100 µM
CCOc1ccc(NCC2CC/C(=C\c3ccc(Cl)cc3)C2=O)cc1 (stereo not given),23.7 µM,> 62.9 µM,> 51.9 µM,> 75.3 µM,> 65.6 µM,> 87.5 µM,> 64.6 µM,> 100 µM,> 76.5 µM,–,–,–,–,–,–,–,–,–,–,–
CN(C(=O)C12C3C4C1C1C2C3C41C(O)C(C)(C)C)C(C)(C)C (stereo not given),–,> 100 µM,> 100 µM,> 100 µM,> 100 µM,> 100 µM,–,> 100 µM,> 100 µM,–,–,–,–,–,–,–,–,–,–,–
CC(=O)OCCOCNC(=S)N/N=C(\C)c1cccs1,> 100 µM,> 100 µM,> 100 µM,> 100 µM,> 100 µM,> 100 µM,> 100 µM,> 100 µM,> 100 µM,–,–,–,–,–,–,–,–,–,–,–
c1ccc2c(c1)Sc1ccccc1N2C1CN2CCC1CC2 (stereo not given),34 µM,28.8 µM,31.5 µM,35.2 µM,27.7 µM,30.5 µM,–,32.1 µM,25.4 µM,–,–,–,–,–,–,–,–,–,–,–
CN1C(=O)CCC1c1ccc2c(c1)oc(=O)n2C (stereo not given),> 100 µM,> 100 µM,–,> 100 µM,> 100 µM,> 100 µM,> 100 µM,> 100 µM,> 100 µM,–,–,–,–,–,–,–,–,–,–,–
ClC1c2ccccc2C2(c3ccccc3)OOC1(c1ccccc1)O2 (stereo not given),3.24 µM,–,3.3 µM,3.08 µM,4.4 µM,7.14 µM,2.83 µM,3.64 µM,3.27 µM,–,–,–,–,–,–,–,–,–,–,–
CNc1ccc([N+](=O)[O-])c2c(NCCCN(C)C)ccnc12,> 100 µM,> 100 µM,> 100 µM,> 100 µM,> 100 µM,> 100 µM,–,> 100 µM,–,–,–,–,–,–,–,–,–,–,–,–

# Reference: PubChem BioAssay (NCI)
